We go through 13 molecules from US6727245B2, “Heterobicyclic derivatives” (Fujisawa Pharmaceutical Co., Ltd., priority 1994, dated 2004).

As a reminder, the melting point is the temperature of the solid-liquid transition. On to `COC(=O)c1ccc2c(ccn2-c2cccc(-n3c(=O)c(Cc4cccnc4)nc4cccnc43)c2)c1` [Example 54(25), 4-[3-(5-Methoxycarbonylindol-1-yl)phenyl]-2-(3-pyridylmethyl)-3-oxo-3,4-dihydropyrido[2,3-b]pyrazine], for which the melting point is 193 to 197 °C.

As to `Nc1ccc(F)c(-n2c(=O)c(Cc3cccnc3)nc3cccnc32)c1` [Example 47, 4-(5-Amino-2-fluorophenyl)-2-(3-pyridylmethyl)-3-oxo-3,4-dihydropyrido[2,3-b]pyrazine], the melting point is 177 to 179 °C. With `CC(=O)Nc1ccc(F)c(-n2c(=O)c(Cc3cccnc3)nc3cccnc32)c1` [Example 45(15), 4-(5-Acetamido-2-fluorophenyl)-2-(3-pyridylmethyl)-3-oxo-3,4-dihydropyrido[2,3-b]pyrazine], the melting point lay in the range of 212 to 214 °C. On to `O=C(Nc1ccc(F)c(-n2c(=O)c(Cc3cccnc3)nc3cccnc32)c1)Nc1ccccc1F` [Example 50(1), 4-[2-Fluoro-5-[3-(2-fluorophenyl)ureido]phenyl]-2-(3-pyridylmethyl)-3-oxo-3,4-dihydropyrido[2,3-b]pyrazine], for which the melting point is 146 to 149 °C. Regarding `O=C(O)c1ccccc1C(=O)Nc1cccc(-c2cccc(-n3c(=O)c(Cc4cccnc4)nc4cccnc43)c2)c1` [Example 81, 4-[3-[3-(2-carboxybenzoylamino)phenyl]phenyl]-2-(3-pyridylmethyl)-3-oxo-3,4-dihydropyrido[2,3-b]pyrazine], the melting point was 150 °C (dec.). `O=C(Nc1ccccc1)Nc1cccc(-n2c(=O)c(Cc3ccccc3)nc3ccc(Sc4ccccc4)nc32)c1` [Example 68(14), 2-Benzyl-6-phenylthio-4-[3-(3-phenylureido)phenyl]-3-oxo-3,4-dihydropyrido[2,3-b]pyrazine]: the melting point was 183 to 185 °C. With `COc1ccc(-c2cccc(-n3c(=O)c(Cc4cccnc4)nc4cccnc43)c2)cc1OC1CCCC1` [Example 54(27), 4-[3-(3-Cyclopentyloxy-4-methoxyphenyl)phenyl]-2-(3-pyridylmethyl)-3-oxo-3,4-dihydropyrido[2,3-b]pyrazine] the figure was 109 to 111 °C; with `O=c1c(Cc2cccnc2)nc2cccnc2n1-c1cccc(-c2ccc3ccccc3c2)c1` [Example 43, 4-[3-(2-naphthyl)phenyl]-2-(3-pyridylmethyl)-3-oxo-3,4-dihydropyrido[2,3-b]pyrazine], 155 to 156 °C. `Nc1cccc(-c2cccc(-n3c(=O)c(Cc4cccnc4)nc4cccnc43)c2)c1` [Example 75, 4-[3-(3-Aminophenyl)phenyl]-2-(3-pyridylmethyl)-3-oxo-3,4-dihydropyrido[2,3-b]pyrazine] yielded a melting point of 202 to 204 °C.

`O=C(c1ccccc1)c1cccc(-n2c(=O)c(Cc3ccccc3)nc3cccnc32)c1` [Example 45(9), 2-Benzyl-4-(3-benzoylphenyl)-3-oxo-3,4-dihydropyrido[2,3-b]pyrazine]: the melting point was in the range of 154 to 155 °C. Next, `O=C(Nc1cccc(-n2c(=O)c(Cc3cccnc3)nc3cccnc32)c1)Oc1ccccc1`: 227 to 232 °C; `CCOC(=O)/C=C/C(=O)Nc1cccc(-c2cccc(-n3c(=O)c(Cc4cccnc4)nc4cccnc43)c2)c1` [Example 77(3), 4-[3-[3-[(E)-3-Ethoxycarbonylacryloylamino]phenyl]phenyl]-2-(3-pyridylmethyl)-3-oxo-3,4-dihydropyrido[2,3-b]pyrazine]: 130 to 160 °C (dec.); `CCOC(=O)CCc1nc2cccnc2n(-c2cccc(NC(=O)Nc3ccccc3OC)c2)c1=O` [Example 33, 2-(2-ethoxycarbonylethyl)-3-oxo-4-[3-[3-(2-methoxyphenyl)-ureido]phenyl]-3,4-dihydropyrido[2,3-b]pyrazine]: 175 °C.
